Earlier results in patent publication US9603852B2, “Treatment of obesity and pulmonary arterial hypertension” (ALBERT EINSTEIN COLLEGE OF MEDICINE, INC., priority 2013, dated 2017).
Read-outs that look alike come from different tables or passages of the source.

Biological target: T1, rat PGT (Rattus norvegicus, UniProt Q00910)
T1 construct: expressed in transfected cells
Settings: cited from earlier work; for Inh (% of Ctl) 2.5 μM: 2.5 μM compound; for Inh (% of Ctl) 0.5 μM: 0.5 μM compound; for Inh (% of Ctl) 0.1 μM: 0.1 μM compound; for Inh (% of Ctl) 0.01 μM: 0.01 μM compound; for Inh (% of Ctl) 0.01 μM / Inh (% of Ctl) 0.05 μM: second part of Table 1; for Inh (% of Ctl) 0.05 μM: 0.05 μM compound

[1] = second part of Table 1 (Cpd 130-151)

SMILES	Inh (% of Ctl) 0.01 μM	Inh (% of Ctl) 0.05 μM	Inh (% of Ctl) 0.1 μM [1]	other results
CCCCCCCC(=O)c1ccc(Nc2nc(NCCOCCOCCNC(=O)c3ccccc3)nc(Nc3ccc(O)cc3)n2)cc1 [Compound 76]	–	–	–	Inh (% of Ctl) 2.5 μM: 39.9 % of Ctl
O=C(NCCOCCOCCNc1nc(Nc2ccc(O)cc2)nc(Oc2ccc(C(=O)NCc3ccccc3)cc2)n1)c1ccccc1 [Compound 83]	–	–	–	Inh (% of Ctl) 0.5 μM: 4.1 % of Ctl; Inh (% of Ctl) 2.5 μM: 10.4 % of Ctl; Inh (% of Ctl) 5 μM (5 μM compound): 42.0 % of Ctl; IC50 ([3H]PGE2 uptake, MDCK cells with rat PGT): 609 nM
O=C(NCCOCCOCCNc1nc(Nc2ccc(O)cc2)nc(Nc2ccc(C(=O)NCc3ccccc3)cc2)n1)c1ccccc1 [Compound 116]	–	–	–	Inh (% of Ctl) 0.1 μM (first part of Table 1): 36.4 % of Ctl; Inh (% of Ctl) 0.5 μM (0.5 µM): 59.4 % of Ctl
O=C(NCCOCCOCCNc1nc(Nc2ccc(O)cc2)nc(Nc2ccc(C(=O)NCc3cc(F)cc(F)c3)cc2)n1)c1ccccc1 [Compound 130]	41.6 % of Ctl	73.2 % of Ctl	81.7 % of Ctl	–
O=C(NCCOCCOCCNc1nc(Nc2ccc(O)cc2)nc(Nc2ccc(C(=O)NCc3ccc(F)cc3F)cc2)n1)c1ccccc1 [Compound 131]	22.3 % of Ctl	47.0 % of Ctl	74.3 % of Ctl	–
N[C@@H](C(=O)NCCOCCNc1nc(Nc2ccc(O)cc2)nc(Nc2ccc(C(=O)NCc3ccccc3)cc2)n1)c1ccccc1 [Compound 132]	15.0 % of Ctl	22.1 % of Ctl	32.4 % of Ctl	–
N[C@H](Cc1ccccc1)C(=O)NCCOCCNc1nc(Nc2ccc(O)cc2)nc(Nc2ccc(C(=O)NCc3ccccc3)cc2)n1 [Compound 133]	4.3 % of Ctl	12.6 % of Ctl	19.4 % of Ctl	–
O=C(NCc1ccccc1)c1ccc(Nc2nc(NCCOCCNC(=O)c3ccccc3C(F)(F)F)nc(Nc3ccc(O)cc3)n2)cc1 [Compound 134]	14.0 % of Ctl	27.7 % of Ctl	46.7 % of Ctl	–
O=C(NCCOCCNc1nc(Nc2ccc(O)cc2)nc(Nc2ccc(C(=O)NCc3ccccc3)cc2)n1)c1ccncc1 [Compound 135]	13.2 % of Ctl	28.4 % of Ctl	–	–
O=C(NCCOCCNc1nc(Nc2ccc(O)cc2)nc(Nc2ccc(C(=O)NCc3ccccc3)cc2)n1)c1ccc(F)cc1 [Compound 136]	33.3 % of Ctl	64.1 % of Ctl	77.9 % of Ctl	–
COc1ccc(C(=O)NCCOCCNc2nc(Nc3ccc(O)cc3)nc(Nc3ccc(C(=O)NCc4ccccc4)cc3)n2)cc1 [Compound 137]	42.0 % of Ctl	64.9 % of Ctl	75.6 % of Ctl	–
O=C(NCCOCCNc1nc(Nc2ccc(O)cc2)nc(Nc2ccc(C(=O)NCc3ccccc3)cc2)n1)Nc1ccccc1 [Compound 139]	16.3 % of Ctl	30.7 % of Ctl	39.0 % of Ctl	–
CC(=O)NCCOCCNc1nc(Nc2ccc(O)cc2)nc(Nc2ccc(C(=O)NCc3ccccc3)cc2)n1 [Compound 140]	11.5 % of Ctl	4.5 % of Ctl	10.9 % of Ctl	–
O=C(NCc1ccccc1)c1ccc(Nc2nc(NCCOCCNCc3ccccc3)nc(Nc3ccc(O)cc3)n2)cc1 [Compound 141]	12.7 % of Ctl	22.0 % of Ctl	43.5 % of Ctl	–
O=C(NCCOCCOCCNc1nc(Nc2ccc(C(=O)NCc3ccc(F)cc3)cc2)nc(Nc2ccc3[nH]cnc3c2)n1)c1ccccc1 [Compound 142]	8.4 % of Ctl	20.1 % of Ctl	39.2 % of Ctl	–
O=C(NCCOCCOCCNc1nc(Nc2ccc(C(=O)NCc3ccc(F)cc3)cc2)nc(Nc2ccc(O)c(F)c2)n1)c1ccccc1 [Compound 143]	33.7 % of Ctl	57.8 % of Ctl	69.5 % of Ctl	–
COC(=O)c1cc(Nc2nc(NCCOCCOCCNC(=O)c3ccccc3)nc(Nc3ccc(C(=O)NCc4ccc(F)cc4)cc3)n2)ccc1O [Compound 144]	3.4 % of Ctl	5.8 % of Ctl	10.8 % of Ctl	–
O=C(NCc1ccc(F)cc1)c1ccc(Nc2nc(Nc3ccc(O)cc3)nc(Nc3ccc(O)cc3)n2)cc1 [Compound 145]	7.1 % of Ctl	3.1 % of Ctl	6.9 % of Ctl	–
O=C(NCCOCCNc1nc(Nc2ccc(O)cc2)nc(Nc2ccc(C(=O)NCc3ccc(F)cc3)cc2)n1)c1ccccc1 [Compound 147]	44.5 % of Ctl	70.2 % of Ctl	79.5 % of Ctl	–
O=C(NCc1ccc(F)cc1)c1ccc(Nc2nc(Nc3ccc(O)cc3)nc(Nc3ccc(C(=O)NCc4ccc(F)cc4)cc3)n2)cc1 [Compound 148]	8.4 % of Ctl	12.9 % of Ctl	20.7 % of Ctl	–
O=C(NCc1ccc(F)cc1)c1ccc(Nc2nc(Nc3ccc(O)cc3)nc(Nc3ccc(CNCc4ccccc4)cc3)n2)cc1 [Compound 149]	3.8 % of Ctl	9.1 % of Ctl	17.6 % of Ctl	–
O=C(O)c1cccc(Nc2nc(NCCOCCOCCNC(=O)c3ccccc3)nc(Nc3ccc(C(=O)NCc4ccc(F)cc4)cc3)n2)c1 [Compound 150]	4.2 % of Ctl	14.3 % of Ctl	23.9 % of Ctl	–
O=C(NCCOCCOCCNc1nc(NCCOCCOCCNC(=O)c2ccccc2)nc(Nc2ccc(O)cc2)n1)c1ccccc1 [Compound 151]	–	0.7 % of Ctl	8.4 % of Ctl	–
